# The source made the active and inactive calls.
# Assays:
# [1] = target: FAD-linked sulfhydryl oxidase ALR (Homo sapiens, UniProt P55789); experiment: inhibitors of human ALR sulfhydryl oxidase, dose response, biochemical, H2O2 detection, luminescence, cherry-pick (AID 493248)
# [2] = target: T1, Rac GTPase-activating protein 1 (Homo sapiens, UniProt Q9H0H5); experiment: MgcRacGAP GTPase-activating activity inhibitors, confirmation, biochemical, ADP Hunter fluorescence, primary and confirmatory (AID 624330); type: functional
# T1 sequence (Q9H0H5 whole entry): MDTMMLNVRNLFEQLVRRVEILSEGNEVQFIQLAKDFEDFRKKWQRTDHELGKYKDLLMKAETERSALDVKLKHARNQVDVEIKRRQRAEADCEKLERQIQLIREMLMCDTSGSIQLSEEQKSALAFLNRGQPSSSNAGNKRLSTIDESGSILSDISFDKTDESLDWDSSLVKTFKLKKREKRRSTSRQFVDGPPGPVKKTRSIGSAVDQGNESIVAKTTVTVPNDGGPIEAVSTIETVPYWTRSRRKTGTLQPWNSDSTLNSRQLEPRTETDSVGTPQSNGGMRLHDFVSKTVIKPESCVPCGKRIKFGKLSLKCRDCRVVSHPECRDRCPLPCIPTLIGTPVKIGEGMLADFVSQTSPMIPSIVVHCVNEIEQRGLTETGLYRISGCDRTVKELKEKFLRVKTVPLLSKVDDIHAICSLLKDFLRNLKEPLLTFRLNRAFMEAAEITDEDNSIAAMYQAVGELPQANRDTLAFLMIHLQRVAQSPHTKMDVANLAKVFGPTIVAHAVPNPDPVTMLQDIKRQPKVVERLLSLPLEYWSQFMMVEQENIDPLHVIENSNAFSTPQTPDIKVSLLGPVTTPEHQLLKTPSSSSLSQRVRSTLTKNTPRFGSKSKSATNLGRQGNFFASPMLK
# [3] = growth suppression of beta-catenin-knockout colon cells, dose response, cell-based, HCT116, human colon tumor (AID 1045); type: functional;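 also: HCT116 colon tumor cells with beta catenin knocked out; cells exposed to compound for 60 hours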
# [4] = growth suppression of PTEN-null colon cells, dose response, cell-based, HCT116 PTEN knockout (AID 1047); type: functional;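 also: HCT116 colon tumor cells with PTEN knocked out; cells exposed to compound for 60 hours before readout; potency for loss of cell viability measured by luminescence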
# Fatty acid synthase [5] = target: T2, Fatty acid synthase (Homo sapiens, UniProt P49327); experiment: FAS thioesterase domain inhibitors, dose response, biochemical, kinetic fluorescence intensity (AID 624326); type: functional;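 also: rate of fluorescence rise from hydrolysis of a fluorogenic O-methyl fluorescein ester substrate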
# Fatty acid synthase [6] = target: T2, Fatty acid synthase; experiment: FAS thioesterase domain inhibitors, dose response, biochemical, endpoint fluorescence intensity, uHTS hits (AID 624327); type: functional;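 also: fluorescence from hydrolysis of an O-methyl fluorescein acyl ester substrate by the enzyme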
# cells = type: functional
# [7] = Luminescence Cell-Based Dose Retest to Confirm Inhibitors of Cancer Stem Cells. [Related pubchem assays (depositor defined):AID2717, AID2721]; type: functional; settings: Homo sapiens
# Vero = experiment: cells; type: functional; settings: Chlorocebus sabaeus
# [8] = HepG2 cell cytotoxicity, dose response, cytotoxicity control, plate reader, cherry-pick, antagonist series (AID 743416); type: functional, cell-based
# [9] = MC4R antagonists, dose response, counter-screen for LGR2 antagonist project, cell-based, plate reader, cherry pick (AID 743444); type: functional;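 also: transfected HEK 293 cells stimulated with alpha-MSH peptide; potency of inhibitors of the alpha-MSH evoked signal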
# [10] = A549 cell cytotoxicity, dose response, cytotoxicity control, plate reader, cherry-pick, antagonist series (AID 743412); type: functional, cell-based
# T2 sequence (P49327 whole entry, the tested form may be a part): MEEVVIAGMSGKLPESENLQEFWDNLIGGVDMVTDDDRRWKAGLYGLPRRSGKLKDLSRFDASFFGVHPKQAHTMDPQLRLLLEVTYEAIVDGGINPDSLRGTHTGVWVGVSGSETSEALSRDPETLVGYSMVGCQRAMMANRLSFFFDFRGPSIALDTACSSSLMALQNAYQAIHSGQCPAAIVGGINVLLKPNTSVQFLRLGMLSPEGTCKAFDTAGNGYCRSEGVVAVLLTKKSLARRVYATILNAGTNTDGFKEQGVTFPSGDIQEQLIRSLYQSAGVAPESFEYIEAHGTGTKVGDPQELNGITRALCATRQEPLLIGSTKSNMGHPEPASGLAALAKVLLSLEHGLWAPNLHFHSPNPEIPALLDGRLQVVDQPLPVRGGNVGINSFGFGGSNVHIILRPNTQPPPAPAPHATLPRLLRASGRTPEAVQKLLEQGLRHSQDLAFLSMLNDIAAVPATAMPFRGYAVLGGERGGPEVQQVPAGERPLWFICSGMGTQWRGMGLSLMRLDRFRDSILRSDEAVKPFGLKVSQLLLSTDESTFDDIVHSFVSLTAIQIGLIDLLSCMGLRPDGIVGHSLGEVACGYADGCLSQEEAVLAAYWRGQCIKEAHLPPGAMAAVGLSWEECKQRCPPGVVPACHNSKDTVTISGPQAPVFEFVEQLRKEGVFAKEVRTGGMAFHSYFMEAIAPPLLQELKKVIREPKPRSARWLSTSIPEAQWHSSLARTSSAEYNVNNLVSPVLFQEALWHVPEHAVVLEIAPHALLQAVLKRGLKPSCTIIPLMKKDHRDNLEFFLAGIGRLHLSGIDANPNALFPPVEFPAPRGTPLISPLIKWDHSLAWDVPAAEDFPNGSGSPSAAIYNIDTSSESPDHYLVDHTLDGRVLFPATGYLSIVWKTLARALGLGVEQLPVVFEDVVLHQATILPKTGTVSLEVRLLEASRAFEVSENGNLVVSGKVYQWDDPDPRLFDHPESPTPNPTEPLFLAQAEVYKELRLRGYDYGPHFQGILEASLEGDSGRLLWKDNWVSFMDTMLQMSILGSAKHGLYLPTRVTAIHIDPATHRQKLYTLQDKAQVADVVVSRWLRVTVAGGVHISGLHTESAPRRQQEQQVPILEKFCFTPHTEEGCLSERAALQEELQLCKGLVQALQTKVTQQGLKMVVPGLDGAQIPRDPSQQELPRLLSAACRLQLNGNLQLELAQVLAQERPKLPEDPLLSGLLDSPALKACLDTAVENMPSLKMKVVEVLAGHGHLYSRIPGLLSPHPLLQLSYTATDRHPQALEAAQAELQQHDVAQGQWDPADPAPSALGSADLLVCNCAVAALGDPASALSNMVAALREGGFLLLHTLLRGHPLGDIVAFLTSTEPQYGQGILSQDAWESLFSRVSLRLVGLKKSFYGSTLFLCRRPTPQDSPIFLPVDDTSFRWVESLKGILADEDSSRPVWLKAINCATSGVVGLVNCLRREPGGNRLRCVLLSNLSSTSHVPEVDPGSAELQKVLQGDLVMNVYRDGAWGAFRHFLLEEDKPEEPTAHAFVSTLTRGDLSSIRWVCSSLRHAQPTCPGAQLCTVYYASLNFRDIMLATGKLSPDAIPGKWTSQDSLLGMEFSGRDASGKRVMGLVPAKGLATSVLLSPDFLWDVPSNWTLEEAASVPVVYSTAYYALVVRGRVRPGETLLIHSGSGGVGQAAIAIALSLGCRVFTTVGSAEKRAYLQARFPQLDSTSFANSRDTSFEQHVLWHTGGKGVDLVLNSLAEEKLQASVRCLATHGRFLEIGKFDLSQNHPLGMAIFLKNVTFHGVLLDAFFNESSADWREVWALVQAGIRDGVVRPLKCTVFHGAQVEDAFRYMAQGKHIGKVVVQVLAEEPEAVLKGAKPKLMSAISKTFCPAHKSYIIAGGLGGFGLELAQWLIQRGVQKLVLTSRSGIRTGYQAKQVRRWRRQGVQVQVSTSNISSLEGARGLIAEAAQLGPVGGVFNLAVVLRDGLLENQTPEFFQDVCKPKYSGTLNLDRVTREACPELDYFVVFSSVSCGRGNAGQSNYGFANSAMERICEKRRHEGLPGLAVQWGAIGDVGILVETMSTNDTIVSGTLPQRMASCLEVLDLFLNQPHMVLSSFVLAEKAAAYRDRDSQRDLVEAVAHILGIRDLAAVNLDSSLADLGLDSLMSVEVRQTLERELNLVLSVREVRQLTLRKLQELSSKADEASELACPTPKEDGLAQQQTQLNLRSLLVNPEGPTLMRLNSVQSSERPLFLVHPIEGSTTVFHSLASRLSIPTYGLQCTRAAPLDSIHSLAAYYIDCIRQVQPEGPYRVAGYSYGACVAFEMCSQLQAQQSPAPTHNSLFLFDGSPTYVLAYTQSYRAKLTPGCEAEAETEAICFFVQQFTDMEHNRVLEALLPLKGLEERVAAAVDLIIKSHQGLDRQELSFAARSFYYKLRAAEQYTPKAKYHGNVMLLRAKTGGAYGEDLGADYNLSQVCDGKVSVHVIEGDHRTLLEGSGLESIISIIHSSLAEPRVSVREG
# Chain of FAD-linked sulfhydryl oxidase ALR (P55789 whole entry): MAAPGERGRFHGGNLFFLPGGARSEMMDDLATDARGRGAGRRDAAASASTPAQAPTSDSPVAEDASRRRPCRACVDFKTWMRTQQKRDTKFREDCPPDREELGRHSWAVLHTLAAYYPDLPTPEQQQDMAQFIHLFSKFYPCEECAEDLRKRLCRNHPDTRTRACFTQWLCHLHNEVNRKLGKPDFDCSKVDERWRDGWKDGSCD
structure (smiles),measurement,setting,value
O=[N+]([O-])c1cccc(CN2CCN(c3cccc4[nH]ccc34)CC2)c1,AC50,[1],2.06 µM (active)
same,IC50,[2],45.4 µM (active)
CC(C)CCn1c(SCCc2ccccc2)nc2c1c(=O)[nH]c(=O)n2C,EC50,[3],35.6 µM (active)
same,EC50,[4],30.9 µM (active)
CC(Cc1ccccc1)NC(=O)c1cc([N+](=O)[O-])ccc1Cl (configuration not stated),IC50,Fatty acid synthase [5],5.85 µM (active)
same,IC50,Fatty acid synthase [6],5.69 µM (active)
Cc1noc(/C=C/c2ccco2)c1S(=O)(=O)N1CCC(C(=O)N2CCc3ccccc3C2)CC1,EC50,[3],26.9 µM (active)
same,EC50,[4],24.8 µM (active)
CC(C)(C)N1C(=O)[C@H]2[C@@H](c3ccc(Br)cc3)N3C(=O)N(c4ccc(Br)cc4)C(=O)[C@@]3(Cc3ccccc3)[C@H]2C1=O,IC50,Fatty acid synthase [5],10.5 µM (active)
same,IC50,Fatty acid synthase [6],10.3 µM (active)
Cc1cccc(Oc2ccc(NC(=O)c3ccccc3C(=O)O)cc2)c1,AC50,[1],5.07 µM (active)
O=C(CSc1nnc(SCc2cccc3ccccc23)s1)N=Nc1c(O)[nH]c2ccccc12,EC50,[3],10.8 µM (active)
same,EC50,[4],13.6 µM (active)
Cc1cccc(NC(=O)COc2ccc(Br)cc2)n1,IC50,cells,23.4 µM (active)
Cc1sc2nc(CN3CCCC3)nc(Cl)c2c1C,EC50,[3],11.2 µM (active)
same,EC50,[4],16.2 µM (active)
COc1ccc(-c2csc3nc(-c4ccccc4F)oc(=O)c23)cc1,IC50,Fatty acid synthase [5],1.16 µM (active)
same,IC50,Fatty acid synthase [6],2.83 µM (active)
COC(=O)C1CSC(C(=O)OC)N1C(=O)CN1CCN(c2ccccc2)CC1 (configuration not stated),AC50,[1],2.84 µM (active)
CCCCn1c(NC(C)CC)nc2c1c(=O)[nH]c(=O)n2C (configuration not stated),AC50,[1],4.01 µM (active)
COc1cc(C(=O)NCC(c2cccnc2)N2CCN(c3ccccc3)CC2)cc(OC)c1OC (configuration not stated),AC50,[1],3.41 µM (active)
COc1cc(N(C(=O)Cc2cccs2)C(C(=O)NC2CCCCC2)c2ccc(C)cc2)ccc1-n1cnnn1 (configuration not stated),EC50,[3],8.86 µM (active)
same,EC50,[4],8.44 µM (active)
Cc1ccc(-c2nc(Nc3cccc(C)c3)sc2CC(=O)O)cc1,AC50,[1],9.95 µM (active)
Cn1c(CNc2ccc(Br)cc2)nc2ccccc21,AC50,[1],14.6 µM (active)
Cc1nnc2sc(SCc3cccc(Cl)c3)nn2c1=O,AC50,[7],34.2 µM (active)
same,AC50,[1],0.175 µM (active)
CC1(C)CC(=O)CC(C2(O)C(=O)N(Cc3ccccc3)c3ccccc32)O1 (configuration not stated),EC50,[3],17.4 µM (active)
same,EC50,[4],17.7 µM (active)
Cc1cccc(C)c1NC(=O)NCCCN1CCN(c2ccccc2)CC1,AC50,[1],89.4 µM (active)
O=[N+]([O-])c1cc(-c2csc(NCCc3nc4cc(Cl)c(Cl)cc4n3CCCO)n2)ccc1Cl,IC50,Fatty acid synthase [5],2.55 µM (active)
same,IC50,Fatty acid synthase [6],2.49 µM (active)
CCc1nonc1NC(=O)COc1ccc(Cl)c(C)c1,IC50,cells,17 µM (active)
O=C(CCc1ccccc1)N1CCN(c2ccc(F)cc2)CC1,AC50,[1],13.8 µM (active)
C[C@H](CO)N1C[C@H](C)[C@@H](CN(C)C(=O)Nc2ccccc2)Oc2c(NC(=O)Nc3ccc(C(F)(F)F)cc3)cccc2C1=O,IC50,Fatty acid synthase [5],2.08 µM (active)
same,IC50,Fatty acid synthase [6],2.24 µM (active)
O=[N+]([O-])c1cc(-c2csc(NCCc3nc4cc(C(F)(F)F)ccc4n3CCCO)n2)ccc1Cl,IC50,Fatty acid synthase [5],3.93 µM (active)
same,IC50,Fatty acid synthase [6],5.17 µM (active)
S=C(NCCc1ccccc1)N1Cc2cc(Br)ccc2-n2nncc2C1,IC50,Fatty acid synthase [5],7.04 µM (active)
same,IC50,Fatty acid synthase [6],12.1 µM (active)
CC(=O)Nc1ccc(S(=O)(=O)N2CN(c3ccc(C)cc3)c3nc4ccccc4nc32)cc1,CC50,Vero,> 25 µM (active)
CCOC(CNCc1cc(C)c2[nH]c3ccccc3c2c1C)OCC,CC50,Vero,22.6 µM (active)
CN(Cc1cnn(-c2ccccc2)c1)C(=O)c1ccc(S(=O)(=O)NCc2ccco2)cc1,CC50,Vero,14.4 µM (active)
OC[C@H]1[C@@H](c2ccc(-c3ccc(F)cc3)cc2)[C@@H]2CN(Cc3ccccn3)CCCCN12,AC50,[8],19.1 µM (active)
same,AC50,[9],37.5 µM (active)
same,AC50,[10],22 µM (active)
CCOC(=O)COc1ccc2c(=O)cc(-c3ccccc3)oc2c1 [EFLOXATE],IC50,cells,< 0.1 µM (active)

# — ChEMBL document CHEMBL1201862, “PubChem BioAssay data set” (2004)
